Legend:
[1] = test system: caspase 3/7 catalytic activity in N1-S1 cells; test: Caspase 3/7 catalytic activity in N1-S1 cells (Caspase-Glo); assay type: cell-based, rat
Protocol: In some embodiments, bar graph 402 represents the percentage change in caspase 3/7 catalytic activity after four (4) hours of incubation with 0.3 μM 17-AAG followed by the application of a single 600 ns pulse at different electric field intensities (from 0 to about 60 kV/cm). In these embodiments, bar graph 432 represents the percentage change in […] after 16 hours of incubation with 0.3 μM 17-AAG followed by the application of a single 600 ns pulse at different electric field intensities (from 0 to about 60 kV/cm).
In some embodiments, N1-S1 cells were incubated with or without 17-AAG for 4 hours or 16 hours to determine a synergistic activation of caspase 3/7 with 17-AAG and nsPEFs. In these embodiments, after the incubation period, N1-S1 cells were then treated with nsPEFs with increasing electric fields (one 600 ns pulse) and assayed for caspase 3/7 catalytic activity two (2) hours after pulsing. In an example, caspase 3/7 catalytic activity is measured employing Caspase-Glo (available from Promega, Madison, Wis.) 2 hours after pulsing.

N1-S1 rat HCC cells = test: Cell viability of N1-S1 rat HCC cells (CellTiter-Glo) after Hsp90 inhibitor and/or nsPEF; assay type: cell-based
Protocol: In some embodiments, N1-S1 rat HCC cells are exposed to an inhibitor of Hsp90 and then exposed to nsPEFs to cause cell death. In these embodiments, using the aforementioned methodology the cells mortality is greater than when either Hsp90 inhibitor or nsPEFs are employed alone. In an example, N1-S1 rat HCC cells are treated with 0.3 μM 17-AAG and incubated for 24 hours. In this example, after the 24 hours incubation period, the N1-S1 rat HCC cells are treated with a single 600 ns pulse with increasing electric field intensities (from about 10 kV/cm to about 60 kV/cm). Further to this example, cell viability is determined employing CellTiter-Glo (available from Promega, Madison, Wis.) 24 hours after pulsing.
In an example, mitochondria membrane potential (ΔΨm) and Ca^2+ influx are determined by employing Tetramethylrhodamine, ethyl ester (TMRE) Assay Kit and green-fluorescent calcium indicator, Fluo-4, respectively, 10 minutes after pulsing. In this example, cell viability is determined employing CellTiter-Glo (available from Promega, Madison, Wis.) 24 hours after pulsing.
In some embodiments, bar 502 illustrates the percentage of cell viability for a control sample where none of the treatments are employed. In these embodiments, bar 504 illustrates the percentage of cell viability when employing an Hsp90 inhibitor at a concentration of 0.3 μM (e.g., 17-AAG) without nsPEFs. Further to these embodiments, bar 506 illustrates the percentage of cell viability when employing only a single 600 nsPEF of 60 kV/cm. Still further to these embodiments, bar 508 illustrates the percentage of cell viability when employing both treatments (0.3 μM 17-AAG and single 600 ns pulse of 60 kV/cm). In an example, N1-S1 HCC cells are employed for the cell viability test.

cleaved caspase 3 = test: Western blot for cleaved caspase 3 relative to β-actin (LI-COR Odyssey CLx); assay type: cell-based
Excerpt: FIG. 7 is a graphical representation illustrating western blot test results for cleaved caspase 3 when employing an Hsp90 inhibitor at different concentrations, according to an embodiment. In FIG. 7, western blot test results 700 include stained bands 702 and cleaved caspase 3 fold change graph 708. In FIG. 7, stained bands 702 include cleaved caspase 3 bands 704 and β-actin bands 706. In FIG. 7, cleaved caspase 3 fold change graph 708 includes bars 710, 712, and 714. In an example, the western blot data is quantified using a LI-COR Odyssey CLx imaging system. In FIG. 7, stained bands 702 is a photographic representation depicting an expression of cleaved caspase 3 as a function of concentration of an Hsp90 inhibitor (e.g., AUY922). In FIG. 7, cleaved caspase 3 fold change graph 708 is a graphical representation illustrating fold changes of caspase 3 with respect to β-actin. FIG. 8 is a graphical representation illustrating western blot test results for cleaved caspase 3 when employing an Hsp90 inhibitor alone, nsPEF alone, or a combination of both treatments, according to an embodiment. In FIG. 8, western blot test results 800 include stained bands 802 and caspase 3 fold change graph 808. In FIG. 8, stained bands 802 include cleaved caspase 3 bands 804, β-actin bands 806, and caspase expression 807. In FIG. 8, caspase 3-fold change graph 808 includes bars 810, 812, and 814. In an example, the western blot data is quantified using LI-COR Odyssey CLx imaging system. In some embodiments, stained bands 802 is a photographic representation depicting an expression of cleaved caspase 3 as a function of the treatment employed. In these embodiments, caspase 3 fold change graph 808 is a graphical representation illustrating fold changes of caspase 3 with respect to β-actin.

Compound | effect of 17-AAG on the nsPEF-induced modest change in catalytic activity ([1]; 0.3 μM 17-AAG 4 h, then 600 ns pulse at higher electric fields 50-60 kV/cm (bars 428, 430)) | effect of 17-AAG on the nsPEF-induced modest change in caspase activity ([1]; 0.3 μM 17-AAG 4 h, then 600 ns pulse at lower electric fields 10-40 kV/cm (bars 420-426)) | change in caspase 3/7 activity ([1]; 0.3 μM 17-AAG alone, 4 hours of incubation (bar 418, FIG. 4)) | change in caspase 3/7 activity ([1]; 0.3 μM 17-AAG, 16 h of incubation, unaffected by nsPEFs (FIG. 4)) | synergistic effects on caspase 3/7 activity of 17-AAG together with nsPEFs ([1]; the two treatments included together) | cell viability reduction (N1-S1 rat HCC cells; 0.3 μM 17-AAG alone, 24 h incubation, no nsPEF (bar 116, FIG. 1), viability 24 h after pulsing time) | additional increase in the reduction of cell viability (N1-S1 rat HCC cells; 0.3 μM 17-AAG plus nsPEF at about 50 kV/cm (bar 610, FIG. 6)) | percentage of cell viability (N1-S1 rat HCC cells; 0.3 μM 17-AAG plus single 600 ns pulse of 60 kV (bar 508, FIG. 5)) | cells killed (N1-S1 rat HCC cells; cells pre-treated with 0.3 μM 17-AAG, then single 600 ns pulse of 50 kV/cm) | ratio of caspase 3 to β-actin (fold change) (cleaved caspase 3; 1 μM AUY922, no nsPEF (bar 712, FIG. 7), no AUY922 about 1) | ratio of caspase 3 to β-actin (fold change) (cleaved caspase 3; 1 μM AUY922 alone (bar 814, FIG. 8)) | ratio of caspase 3 to β-actin (fold change) (cleaved caspase 3; 1 μM AUY922 plus nsPEF of 600 ns at 20 kV/cm (bar 812, FIG. 8)) | ratio of caspase 3 to β-actin (fold change) (cleaved caspase 3; 10 μM AUY922, no nsPEF (bar 714, FIG. 7), no AUY922 about 1)
C=CCNC1=C2C[C@@H](C)C[C@H](OC)[C@H](O)[C@@H](C)/C=C(\C)[C@H](OC(N)=O)[C@@H](OC)/C=C\C=C(/C)C(=O)NC(=CC1=O)C2=O [17-AAG] | no effect | no effect | no significant change | significant increases | no synergistic effects | about 25% | about 45% | about 17% | 80% | – | – | – | –
CCNC(=O)c1noc(-c2cc(C(C)C)c(O)cc2O)c1-c1ccc(CN2CCOCC2)cc1 [AUY922] | – | – | – | – | – | – | – | – | – | about 2 | ~3 | about 7 | about 7
